Results: PubChem BioAssay (NCI)
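A five-concentration, 48-hour dose response in 96-well plates underlies each endpoint, interpolated linearly between surrounding concentrations. At the TGI there is no net growth.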

Legend:
Test in all cases: NCI anticancer screen, dose series, 48 h
NCI-H460 lung = test system: NCI-H460 lung
SK-MEL-5 melanoma = test system: SK-MEL-5 melanoma
NCI-H23 lung = test system: NCI-H23 lung
OVCAR-3 ovarian = test system: OVCAR-3 ovarian
ACHN renal = test system: ACHN renal
COLO 205 colon = test system: COLO 205 colon
RXF 393 renal = test system: RXF 393 renal
SF-295 CNS = test system: SF-295 CNS
MDA-N = test system: MDA-N
786-0 renal = test system: 786-0 renal
SK-OV-3 ovarian = test system: SK-OV-3 ovarian
CAKI-1 renal = test system: CAKI-1 renal
M14 melanoma = test system: M14 melanoma
MDA-MB-435 = test system: MDA-MB-435
EKVX NSCLC = test system: EKVX NSCLC
HOP-92 NSCLC = test system: HOP-92 NSCLC
NCI-H522 lung = test system: NCI-H522 lung
SW-620 colon = test system: SW-620 colon
T-47D breast = test system: T-47D breast
CCRF-CEM leukemia = test system: CCRF-CEM leukemia
SF-268 CNS = test system: SF-268 CNS
HCT-15 colon = test system: HCT-15 colon
OVCAR-8 ovarian = test system: OVCAR-8 ovarian
HL-60(TB) leukemia = test system: HL-60(TB) leukemia
K-562 leukemia = test system: K-562 leukemia
DU-145 prostate = test system: DU-145 prostate
SK-MEL-28 melanoma = test system: SK-MEL-28 melanoma
IGROV1 ovarian = test system: IGROV1 ovarian
U251 CNS = test system: U251 CNS
SF-539 CNS = test system: SF-539 CNS
SR leukemia = test system: SR leukemia
HCT-116 colon = test system: HCT-116 colon
MALME-3M melanoma = test system: MALME-3M melanoma
KM12 colon = test system: KM12 colon
UACC-257 melanoma = test system: UACC-257 melanoma
NCI/ADR-RES ovarian = test system: NCI/ADR-RES ovarian
BT-549 breast = test system: BT-549 breast
UO-31 renal = test system: UO-31 renal
MCF7 breast = test system: MCF7 breast
NCI-H226 lung = test system: NCI-H226 lung
SN12C renal = test system: SN12C renal
A498 renal = test system: A498 renal
SK-MEL-2 melanoma = test system: SK-MEL-2 melanoma
SNB-19 CNS = test system: SNB-19 CNS
LOX IMVI melanoma = test system: LOX IMVI melanoma
MOLT-4 leukemia = test system: MOLT-4 leukemia
HS 578T breast = test system: HS 578T breast
PC-3 prostate = test system: PC-3 prostate
MDA-MB-231 breast = test system: MDA-MB-231 breast
A549 NSCLC = test system: A549 NSCLC
TK-10 renal = test system: TK-10 renal
HT29 colon = test system: HT29 colon
SNB-75 CNS = test system: SNB-75 CNS
OVCAR-5 ovarian = test system: OVCAR-5 ovarian
RPMI-8226 leukemia = test system: RPMI-8226 leukemia
UACC-62 melanoma = test system: UACC-62 melanoma
OVCAR-4 ovarian = test system: OVCAR-4 ovarian
HOP-62 NSCLC = test system: HOP-62 NSCLC

## CO[C@@H](c1ccccc1)[C@H](O)[C@@](O)(c1ccccc1)P(=O)(OC)OC
NCI-H460 lung
  TGI: > 100 µM
SK-MEL-5 melanoma
  TGI: > 100 µM
NCI-H23 lung
  TGI: > 100 µM
OVCAR-3 ovarian
  TGI: > 100 µM
ACHN renal
  TGI: > 100 µM
COLO 205 colon
  TGI: > 100 µM
RXF 393 renal
  TGI: > 100 µM
SF-295 CNS
  TGI: > 100 µM
MDA-N
  TGI: > 100 µM
786-0 renal
  TGI: > 100 µM
SK-OV-3 ovarian
  TGI: > 100 µM
CAKI-1 renal
  TGI: > 100 µM
M14 melanoma
  TGI: > 100 µM
MDA-MB-435
  TGI: > 100 µM
EKVX NSCLC
  TGI: > 100 µM
HOP-92 NSCLC
  TGI: > 100 µM
NCI-H522 lung
  TGI: > 100 µM
SW-620 colon
  TGI: > 100 µM
T-47D breast
  TGI: > 100 µM
CCRF-CEM leukemia
  TGI: > 100 µM
SF-268 CNS
  TGI: > 100 µM
HCT-15 colon
  TGI: > 100 µM
OVCAR-8 ovarian
  TGI: > 100 µM
HL-60(TB) leukemia
  TGI: > 100 µM
K-562 leukemia
  TGI: > 100 µM
DU-145 prostate
  TGI: > 100 µM
SK-MEL-28 melanoma
  TGI: > 100 µM
IGROV1 ovarian
  TGI: > 100 µM
U251 CNS
  TGI: > 100 µM
SF-539 CNS
  TGI: > 100 µM
SR leukemia
  TGI: > 100 µM
HCT-116 colon
  TGI: > 100 µM
MALME-3M melanoma
  TGI: > 100 µM
KM12 colon
  TGI: > 100 µM
UACC-257 melanoma
  TGI: > 100 µM
NCI/ADR-RES ovarian
  TGI: > 100 µM
BT-549 breast
  TGI: > 100 µM
UO-31 renal
  TGI: > 100 µM
MCF7 breast
  TGI: > 100 µM
NCI-H226 lung
  TGI: > 100 µM
SN12C renal
  TGI: > 100 µM
A498 renal
  TGI: > 100 µM
SK-MEL-2 melanoma
  TGI: > 100 µM
SNB-19 CNS
  TGI: > 100 µM
LOX IMVI melanoma
  TGI: > 100 µM
MOLT-4 leukemia
  TGI: > 100 µM
HS 578T breast
  TGI: > 100 µM
PC-3 prostate
  TGI: > 100 µM
MDA-MB-231 breast
  TGI: > 100 µM
A549 NSCLC
  TGI: > 100 µM
TK-10 renal
  TGI: > 100 µM
HT29 colon
  TGI: > 100 µM
SNB-75 CNS
  TGI: > 100 µM
OVCAR-5 ovarian
  TGI: > 100 µM
RPMI-8226 leukemia
  TGI: > 100 µM
UACC-62 melanoma
  TGI: > 100 µM

## Cc1ccc(S(=O)(=O)NCc2cccc([N+](=O)[O-])c2)cc1
NCI-H460 lung
  TGI: > 100 µM
SK-MEL-5 melanoma
  TGI: > 100 µM
NCI-H23 lung
  TGI: > 100 µM
OVCAR-3 ovarian
  TGI: > 100 µM
ACHN renal
  TGI: > 100 µM
COLO 205 colon
  TGI: > 100 µM
RXF 393 renal
  TGI: > 100 µM
SF-295 CNS
  TGI: > 100 µM
MDA-N
  TGI: > 100 µM
OVCAR-4 ovarian
  TGI: > 100 µM
HOP-62 NSCLC
  TGI: > 100 µM
786-0 renal
  TGI: > 100 µM
SK-OV-3 ovarian
  TGI: > 100 µM
CAKI-1 renal
  TGI: > 100 µM
M14 melanoma
  TGI: > 100 µM
MDA-MB-435
  TGI: > 100 µM
EKVX NSCLC
  TGI: > 100 µM
HOP-92 NSCLC
  TGI: > 100 µM
NCI-H522 lung
  TGI: > 100 µM
SW-620 colon
  TGI: > 100 µM
T-47D breast
  TGI: > 100 µM
CCRF-CEM leukemia
  TGI: > 100 µM
SF-268 CNS
  TGI: > 100 µM
HCT-15 colon
  TGI: > 100 µM
OVCAR-8 ovarian
  TGI: > 100 µM
HL-60(TB) leukemia
  TGI: 90.3 µM
DU-145 prostate
  TGI: > 100 µM
SK-MEL-28 melanoma
  TGI: > 100 µM
IGROV1 ovarian
  TGI: > 100 µM
U251 CNS
  TGI: > 100 µM
SF-539 CNS
  TGI: > 100 µM
SR leukemia
  TGI: > 100 µM
HCT-116 colon
  TGI: > 100 µM
MALME-3M melanoma
  TGI: > 100 µM
KM12 colon
  TGI: > 100 µM
UACC-257 melanoma
  TGI: > 100 µM
NCI/ADR-RES ovarian
  TGI: > 100 µM
BT-549 breast
  TGI: > 100 µM
MCF7 breast
  TGI: > 100 µM
NCI-H226 lung
  TGI: > 100 µM
SN12C renal
  TGI: > 100 µM
A498 renal
  TGI: > 100 µM
SK-MEL-2 melanoma
  TGI: > 100 µM
SNB-19 CNS
  TGI: > 100 µM
LOX IMVI melanoma
  TGI: > 100 µM
MOLT-4 leukemia
  TGI: > 100 µM
HS 578T breast
  TGI: > 100 µM
PC-3 prostate
  TGI: > 100 µM
MDA-MB-231 breast
  TGI: > 100 µM
A549 NSCLC
  TGI: > 100 µM
TK-10 renal
  TGI: > 100 µM
HT29 colon
  TGI: > 100 µM
SNB-75 CNS
  TGI: > 100 µM
OVCAR-5 ovarian
  TGI: > 100 µM
RPMI-8226 leukemia
  TGI: > 100 µM
UACC-62 melanoma
  TGI: > 100 µM
